Results on 16 compounds are retold here after ChEMBL document CHEMBL6182944, “Substrate Specificity of the Organic Cation Transporters MATE1 and MATE2K and Functional Overlap with OCT1 and OCT2” (J Med Chem, 2025).

Each structure is given as a SMILES string. A value given as a limit tells only on which side of the number the result lay.

Series [1] addresses T1, Multidrug and toxin extrusion protein 2 (Homo sapiens, UniProt Q86VL8).
T1 sequence (Q86VL8 whole entry): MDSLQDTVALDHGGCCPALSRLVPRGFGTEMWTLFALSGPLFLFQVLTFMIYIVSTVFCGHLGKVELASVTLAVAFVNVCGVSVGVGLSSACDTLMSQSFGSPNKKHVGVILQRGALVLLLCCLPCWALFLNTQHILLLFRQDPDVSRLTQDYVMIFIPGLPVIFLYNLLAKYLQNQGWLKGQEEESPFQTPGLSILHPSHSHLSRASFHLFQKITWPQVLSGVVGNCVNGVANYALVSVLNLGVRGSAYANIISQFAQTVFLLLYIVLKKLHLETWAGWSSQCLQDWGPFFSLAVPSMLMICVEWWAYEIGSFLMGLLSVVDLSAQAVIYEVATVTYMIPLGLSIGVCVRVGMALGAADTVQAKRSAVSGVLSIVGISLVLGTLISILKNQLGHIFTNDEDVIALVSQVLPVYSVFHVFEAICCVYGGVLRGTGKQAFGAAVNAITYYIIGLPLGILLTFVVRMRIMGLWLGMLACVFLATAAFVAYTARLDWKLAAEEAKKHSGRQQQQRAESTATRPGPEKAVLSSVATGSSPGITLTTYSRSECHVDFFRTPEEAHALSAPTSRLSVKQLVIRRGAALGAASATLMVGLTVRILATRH
The series is described as follows: Substrate activity at MATE2-K (unknown origin) expressed in HEK293 cells assessed as increase in uptake by HPLC-MS/MS analysis. In kind it is cell-based.

Series [2] has as its target T2, Multidrug and toxin extrusion protein 1 (Homo sapiens, UniProt Q96FL8).
T2 sequence (Q96FL8 whole entry): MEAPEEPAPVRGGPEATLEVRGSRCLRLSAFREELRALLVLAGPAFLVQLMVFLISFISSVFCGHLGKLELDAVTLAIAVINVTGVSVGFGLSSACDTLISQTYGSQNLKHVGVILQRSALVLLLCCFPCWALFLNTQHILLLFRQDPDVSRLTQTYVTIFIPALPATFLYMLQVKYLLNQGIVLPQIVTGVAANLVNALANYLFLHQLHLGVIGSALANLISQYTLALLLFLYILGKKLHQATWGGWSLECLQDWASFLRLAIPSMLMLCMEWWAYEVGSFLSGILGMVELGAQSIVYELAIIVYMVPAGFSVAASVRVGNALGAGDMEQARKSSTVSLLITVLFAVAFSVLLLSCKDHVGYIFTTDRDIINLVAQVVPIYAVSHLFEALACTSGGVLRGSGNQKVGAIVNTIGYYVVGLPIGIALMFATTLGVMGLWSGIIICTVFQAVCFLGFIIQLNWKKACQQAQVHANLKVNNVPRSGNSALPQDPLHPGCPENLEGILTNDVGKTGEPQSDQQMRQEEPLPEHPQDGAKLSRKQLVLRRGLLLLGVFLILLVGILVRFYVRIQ
The series is described as follows: Substrate activity at MATE1 (unknown origin) expressed in HEK293 cells assessed as increase in uptake by HPLC-MS/MS analysis. In kind it is cell-based.

In series [3] the target is T3, MATE2-K (Homo sapiens, UniProt Q86VL8).
T3 sequence (Q86VL8 whole entry): T1 sequence (Q86VL8 whole entry)
The series is described as follows: in vitro.

For series [4], the target named is T2, Multidrug and toxin extrusion protein 1. The series is described as follows: Substrate activity at MATE1 (unknown origin) expressed in HEK293 cells assessed as Vmax (maximum transport velocity) by HPLC-MS/MS analysis. The class given is cell-based.
Series [5] addresses T4, MATE1 (Homo sapiens, UniProt Q96FL8).
T4 sequence (Q96FL8 whole entry): T2 sequence (Q96FL8 whole entry)
The series is described as follows: in vitro.

The target of series [6] is T1, Multidrug and toxin extrusion protein 2. The series is described as follows: Substrate activity at MATE2-K (unknown origin) expressed in HEK293 cells assessed as Vmax (maximum transport velocity) by HPLC-MS/MS analysis. The class given is cell-based.
Series [7] concerns the target T2, Multidrug and toxin extrusion protein 1. The series is described as follows: Substrate activity at MATE1 (unknown origin) expressed in HEK293 cells assessed as intrinsic clearance by measuring ratio of Vmax (maximum transport velocity) over Km measured per mg of protein by HPLC-MS/MS analysis. In kind it is cell-based.
The target in series [8] is T1, Multidrug and toxin extrusion protein 2. The series is described as follows: Substrate activity at MATE2-K (unknown origin) expressed in HEK293 cells assessed as intrinsic clearance by measuring ratio of Vmax (maximum transport velocity) over Km measured per mg of protein by HPLC-MS/MS analysis. The class given is cell-based.
[9] abbreviates: HEK293 cells expressing MATE2-K.

As to `O=C(O)c1cn(C2CC2)c2cc(N3CCNCC3)c(F)cc2c1=O` [CIPROFLOXACIN], the Activity result in series [1] and in series [2] was “Dose-dependent-effect” throughout.
With `c1c2c(cc3c1OCO3)-c1cc3ccc4c(c3c[n+]1CC2)OCO4` [COPTISINE], the uptake ratio at 1 min, 2.5 µM in series [3] (setting [9]) and in series [5] (HEK293 cells expressing MATE1) was above 2 in each case. For the same compound, the Activity entry in series [1] and in series [2] was “Dose-dependent-effect” throughout. Besides, the Vmax in series [4] is 2901 pmol/min.
For `CN[C@@H]1CCc2[nH]c3ccc(C(N)=O)cc3c2C1` [FROVATRIPTAN], the uptake ratio at 1 min, 2.5 µM in series [3] (hek293) and in series [5] (hek293) was above 2 throughout. In addition, the Activity entry in series [1] and in series [2] was “Dose-dependent-effect” each time. Also, the Vmax in series [4] came to 4568 pmol/min; in series [6], 869 pmol/min. Besides, the results for the CL in series [7] and in series [8] were 64.9 µL/min and 77.8 µL/min, respectively.
As for `Nc1ccn([C@@H]2CS[C@H](CO)O2)c(=O)n1` [LAMIVUDINE], the Activity entry in series [1] and in series [2] was “Dose-dependent-effect” throughout.
Regarding `CC(=O)OC(C)C[N+](C)(C)C` (stereo not given) [METHACHOLINE], the uptake ratio at 1 min, 2.5 µM in series [3] (hek293) and in series [5] (hek293) was above 2 in each case. For the same compound, the Vmax in series [4] is reported as 17843 pmol/min; in series [6], 1240 pmol/min. Also, the results for the CL in series [7] and in series [8] were 8.98 µL/min and 0.88 µL/min, respectively.
For the compound `CN(C)C(=O)Oc1cccc([N+](C)(C)C)c1` [NEOSTIGMINE], the uptake ratio at 1 min, 2.5 µM in series [3] (setting [9]) and in series [5] (HEK293 cells expressing MATE1) was above 2 throughout. The Activity entry in series [1] and in series [2] was “Dose-dependent-effect” throughout. For the same compound, in series [4], the maximum rate (Vmax) turned out to be 7255 pmol/min. The CL amounted to 45.2 µL/min in series [7] and 8.14 µL/min in series [8].
For `NC[C@H](O)c1ccc(O)c(O)c1` [NOREPINEPHRINE], the Vmax in series [4] is 18720 pmol/min; in series [6], 673 pmol/min. For the same compound, the CL in series [7] worked out at 10 µL/min; in series [8], 0.59 µL/min.
Take `N=C(N)c1ccc(OCCCCCOc2ccc(C(=N)N)cc2)cc1` [PENTAMIDINE]: the Activity entry in series [1] and in series [2] was “Dose-dependent-effect” in each case.
On to `[H]/N=C(/N)N/C(=N/[H])NCCc1ccccc1` [PHENFORMIN], for which the uptake ratio at 1 min, 2.5 µM in series [3] (hek293) and in series [5] (hek293) was above 2 each time. The Vmax in series [4] was determined as 8451 pmol/min; in series [6] it was 1361 pmol/min. Moreover, the CL in series [7] came to 83.9 µL/min; in series [8], 18.6 µL/min.
Turning to `CNC[C@H](O)c1cccc(O)c1` [PHENYLEPHRINE], the uptake ratio at 1 min, 2.5 µM in series [3] (hek293) and in series [5] (hek293) was above 2 in each case. For the same compound, the maximum rate (Vmax) is recorded as 11611 pmol/min in series [4] and 776 pmol/min in series [6]. Moreover, the CL in series [7] came to 24.5 µL/min; in series [8], 1.79 µL/min.
As to `Cc1ncc(CO)c(CN)c1O` [PYRIDOXAMINE], the uptake ratio at 1 min, 2.5 µM in series [3] (hek293) was below 2; in series [5] (hek293) it was above 2. Further, the figures for the Vmax in series [4] and in series [6] were 5442 pmol/min and 989.5 pmol/min, respectively. Moreover, the CL in series [7] was found to be 3.23 µL/min; in series [8], 0.64 µL/min.
With `Cc1cc2nc3c(=O)[nH]c(=O)nc-3n(C[C@H](O)[C@H](O)[C@H](O)CO)c2cc1C` [RIBOFLAVIN], the Activity result in series [1] and in series [2] was “Dose-dependent-effect” in each case.
For `COCCn1c2c([n+](Cc3cnccn3)c1C)C(=O)c1ccccc1C2=O` [SEPANTRONIUM], the uptake ratio at 1 min, 2.5 µM in series [3] (setting [9]) and in series [5] (HEK293 cells expressing MATE1) was above 2 each time. Besides, the Activity result in series [1] and in series [2] was “Dose-dependent-effect” throughout. Further, the Vmax in series [4] was 304 pmol/min. In addition, the CL in series [7] was found to be 3.76 µL/min; in series [8], 9.19 µL/min.
On to `CCN1CCCC1CNC(=O)c1cc(S(N)(=O)=O)ccc1OC` (stereo not given) [SULPIRIDE], for which the Vmax in series [4] is 851 pmol/min; in series [6], 1025 pmol/min. Besides, the CL in series [7] worked out at 53.2 µL/min; in series [8], 44.9 µL/min.
Take `Cc1ncc(C[n+]2csc(CCO)c2C)c(N)n1` [THIAMINE ION]: the uptake ratio at 1 min, 2.5 µM in series [3] (hek293) and in series [5] (hek293) was above 2 throughout. The Activity result in series [1] and in series [2] was “Dose-dependent-effect” in each case. Further, the Vmax in series [4] is on record as 599 pmol/min. For the same compound, the CL was 34.9 µL/min in series [7] and 6.32 µL/min in series [8].
For the compound `NCCc1ccc(O)cc1` [TYRAMINE], the uptake ratio at 1 min, 2.5 µM is below 2 in series [3] (hek293) and above 2 in series [5] (hek293). Also, the values for the Vmax in series [4] and in series [6] were 5948 pmol/min and 2868 pmol/min, respectively. Further, the CL in series [7] was determined as 43.6 µL/min; in series [8], 2.71 µL/min.

For orientation: Vmax means the rate approached at saturating substrate.
